Reference: patent US11913018B2, “In vitro production of expanded potential stem cells” (GENOME RESEARCH LIMITED, priority 2014, dated 2024)

Assays:
AB2.2 mouse ESCs = assay: TE contribution of mouse ESCs cultured in inhibitor combinations, injected to 8-cell host embryos; type: cell-based; conditions: AB2.2 mouse ESCs cultured at least 5 passages, chimera blastocysts co-stained for mCherry and Cdx2
Description: Mouse EPSCs were initially derived and maintained in the standard EPSCM that contains six inhibitors (see materials and methods). To determine the effects of individual inhibitors in EPSCM and to explore the possibility that fewer inhibitors might be sufficient for the expanded potential in mouse stem cells, we cultured AB2.2 mouse ESCs in various combinations of inhibitors, initially based on the 2i/LIF medium, for at least 5 passages before injected to 8-cell host embryos. The chimera blastocysts were co-stained for mCherry and Cdx2 for TE contribution.
Injections were carried out with a Nikon Eclipse TE2000-U inverted microscope unit. ESC/EPSC microinjection was performed at room temperature on the inverted lid of a 100-mm falcon culture dish in an injection drop of 1.0 ml M2 medium (Sigma) The embryo was injected with 6-8 cells per 8-cell stage embryo for bulk injection or 1 cell per embryo for single cell injection. After 45-50 embryos have been injected, the injected embryos were washed three times in KSOM (Millipore) containing 3.0 mg/ml BSA, Embryos were then transferred into a well of four-well plate containing 1.0 ml KSOM. After overnight culture, 20-25 injected embryos were transferred into both uterus of a foster recipient.

EPSCs = assay: EPSCM with other wnt inhibitor in place of XAV939; type: cell-based
human EPSCs = assay: Culture and maintenance of human EPSCs; type: cell-based
Description: We also investigated whether human ESCs could survive and proliferate in EPSCM. H1 hESCs were maintained in standard FGF2 containing media on feeders. H1 cells survived culture in EPSCM and morphologically distinct 3-dimensional colonies emerged within one passage. Continued culture allowed establishment of a stable line which we called H1-EPSCs.
Human iPSC lines were also produced from human neural stem cells, and from human fetal or adult skin fibroblast cells using the six-factor reprogramming technology described in Wang et al (2011) and cultured for 2-3 weeks on feeders. The resulting iPSCs were switched to EPSCM and transgene free stable lines were established (EPSC-iPSCs). (FIG. 6). Stable human EPSC-iPSC lines have been passaged for over 30 passages in EPSCM.
We made several reporter EPSC lines that have a GFP or mCherry expression cassette at loci including Oct4, Sox2 and ROSA26. […] Importantly, these reporter cells provide a convenient way to assess the culture condition. […] However, we have also observed cases where EPSCM supplemented with fewer than six inhibitors has been able to obtain EPSCs. For example, where the EPSCM is supplemented with a chemically defined basal medium, such as Albumax II, it has been observed that fewer than six inhibitors are required obtain EPSCs. […]

Jak/Stat pathway = assay: LIF response in ESCs and EPSCs; type: cell-based, mouse; conditions: adding LIF to EPSCs
Protocol: For LIF stimulation, 1.0×10^6 cells were seeded in […] for 24 hours. Cells were washed with PBS and cultured in DMEM/F12/KSR for 4 hours, then LIF was supplemented at concentration of 0.0, 0.5, 1.0, 5.0 and 10.0 ng/ml for 30 minutes. Whole cell protein was extracted for Western blot using pSTAT3 (Cell signalling) and STAT3 (BD Biosciences) antibodies. α-Tubulin (Abcam) was used as loading control.
To analyse the expression of down-stream target genes of Jak-Stat3 and MAPK signalling at transcription level after LIF stimulation, both E14Tg2a ESCs and EPSCs were deprived of LIF for 4 hours as above, LIF 1.0 ng/ml was supplemented for 1 hour, total RNA was extracted and reverse transcribed to make cDNA. qPCR was performed using Taqman Gene Expression Assays (ABI)

CN1CCN(C2CCC(n3cc(-c4ccc(Oc5ccccc5)cc4)c4c(N)ncnc43)CC2)CC1 (centres unmarked) [A419259]
TE contribution on adding inhibitor to the 2i/LIF (2i) medium (AB2.2 mouse ESCs): substantially increased TE contribution

Cc1ccc2nc(NC(=O)CSc3nc4c(c(=O)n3-c3ccccc3)SCC4)sc2c1 [IWP-2]
use as the wnt inhibitor in EPSCM in place of XAV939 (EPSCs): successfully used

CCOc1nc(NC(=O)Cc2cc(OC)ccc2OC)cc(N)c1C#N [JNKi]
effect of inhibitor absence on human EPSC culture (human EPSCs): absence caused gradual deterioration

Oc1nc(-c2ccc(C(F)(F)F)cc2)nc2c1CSCC2 [XAV939]
TE contribution on adding inhibitor to the 2i/LIF (2i) medium (AB2.2 mouse ESCs): substantially increased TE contribution

Cc1cc(/C=C2\SC(=O)N(c3ccccc3)C2=O)c(C)n1-c1cccnc1 [iCRT 14]
use as the wnt inhibitor in EPSCM in place of XAV939 (EPSCs): successfully used

C[S+]([O-])c1ccc(-c2nc(-c3ccncc3)c(-c3ccc(F)cc3)[nH]2)cc1 (centres unmarked) [p38i]
effect of inhibitor absence on human EPSC culture (human EPSCs): absence caused gradual deterioration

LIF: leukemia inhibitory factor, a cytokine
expression of Jak/Stat downstream genes (Jak/Stat pathway): upregulated expression of Jak/Stat downstream genes
phosphorylation of Stat3 (Jak/Stat pathway): increased phosphorylation of Stat3
